Source: patent publication US8778871B2 (Takeda Pharmaceutical Company Limited, priority 2004, dated 2014)
Non-standard residues stand in square brackets, D forms with d. Residues, ends and D or L forms follow the SMILES beside them. No end group written: not given here. Arg(Me) = CNC(=N)NCCC[C@H](N)C(=O)O; Bta = N[C@@H](Cc1csc2ccccc12)C(=O)O; Cha = N[C@@H](CC1CCCCC1)C(=O)O; azaGly = NNC(=O)O

Columns and labels:
[1] = biological target: T1, hOT7T175 (Homo sapiens, UniProt Q969F8, L364H); test: Intracellular Ca ion level-increasing activity using FLIPR (180 seconds; specific activity to Metastin (1-54)); format: cell-based; conditions: hOT7T175/CHO, relative to Metastin (1-54) = 1
T1 construct: expressed in transfected cells
T1 sequence (Q969F8 whole entry L364H): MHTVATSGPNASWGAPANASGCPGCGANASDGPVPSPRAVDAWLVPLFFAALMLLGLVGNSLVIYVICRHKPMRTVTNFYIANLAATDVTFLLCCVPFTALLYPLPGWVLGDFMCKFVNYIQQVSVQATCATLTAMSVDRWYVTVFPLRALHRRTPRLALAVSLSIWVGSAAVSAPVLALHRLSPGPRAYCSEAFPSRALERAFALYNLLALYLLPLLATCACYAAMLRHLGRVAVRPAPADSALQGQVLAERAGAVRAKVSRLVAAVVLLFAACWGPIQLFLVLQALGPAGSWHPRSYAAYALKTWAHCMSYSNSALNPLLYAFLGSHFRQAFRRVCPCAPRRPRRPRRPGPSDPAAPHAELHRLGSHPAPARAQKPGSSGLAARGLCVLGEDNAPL

[2] = biological target: T1, hOT7T175; format: cell-based; conditions: hOT7T175/CHO, FLIPR, evaluation for 40 seconds after initiation of the reaction
Description: The intracellular Ca ion level-increasing activity was measured using FLIPR as in TEST EXAMPLE 2.

## CNC(=N)NCCC[C@H](NC(=O)[C@H](CC(C)C)NC(=O)CNC(=O)[C@H](Cc1ccccc1)NC(=O)[C@H](C)NC(=O)[C@H](CC(N)=O)NC(=O)[C@H](Cc1c[nH]c2ccccc12)NC(=O)[C@H](CC(N)=O)NC(=O)[C@H](N)Cc1ccc(O)cc1)C(=O)N[C@@H](Cc1ccccc1)C(N)=O [Compound No. 212] (H-[dY]NWNAFGL[Arg(Me)]F-NH2)
[1]
  Specific Act. (intracellular Ca ion level-increasing activity, specific activity to Metastin (1-54)): 10
[2]
  Specific Act. (EC50/MS10 EC50): 1.1

## CNC(=N)NCCC[C@H](NC(=O)[C@H](CC(C)C)NC(=O)NNC(=O)[C@H](Cc1ccccc1)NC(=O)[C@H](CO)NC(=O)[C@H](CC(N)=O)NC(=O)[C@@H](NC(=O)[C@H](N)Cc1ccc(O)cc1)[C@@H](C)O)C(=O)N[C@@H](Cc1ccccc1)C(N)=O [Compound No. 241, D-Tyr-Thr-Asn-Ser-Phe-AzaGly-Leu-Arg(Me)-Phe-NH2] (H-[dY]TNSF[azaGly]L[Arg(Me)]F-NH2)
[1]
  Specific Act. (intracellular Ca ion level-increasing activity, specific activity to Metastin (1-54)): 1
[2]
  Specific Act. (EC50/MS10 EC50): 5.3

## CC(C)C[C@H](NC(=O)CNC(=O)[C@H](CC1CCCCC1)NC(=O)[C@H](CO)NC(=O)[C@H](CC(N)=O)NC(=O)[C@H](Cc1c[nH]c2ccccc12)NC(=O)[C@H](CC(N)=O)NC(=O)[C@@H](N)Cc1ccc(O)cc1)C(=O)N[C@@H](CCCNC(=N)N)C(=O)N[C@@H](Cc1ccccc1)C(N)=O [Compound No. 156, Tyr-Asn-Trp-Asn-Ser-Cha-Gly-Leu-Arg-Phe-NH2] (H-YNWNS[Cha]GLRF-NH2)
[1]
  Specific Act. (intracellular Ca ion level-increasing activity, specific activity to Metastin (1-54)): 2
[2]
  Specific Act. (EC50/MS10 EC50): 0.9

## CC(C)C[C@H](NC(=O)CNC(=O)[C@H](Cc1ccccc1)NC(=O)[C@H](CO)NC(=O)[C@H](CC(N)=O)NC(=O)[C@H](Cc1c[nH]c2ccccc12)NC(=O)[C@H](CC(N)=O)NC(=O)[C@H](N)Cc1ccc(O)cc1)C(=O)N[C@@H](CCCNC(=N)N)C(=O)N[C@@H](Cc1ccccc1)C(N)=O [Compound No. 42]
[1]
  Specific Act. (intracellular Ca ion level-increasing activity, specific activity to Metastin (1-54)): 30
[2]
  Specific Act. (EC50/MS10 EC50): 1.6

## CNC(=N)NCCC[C@H](NC(=O)[C@H](CC(C)C)NC(=O)CNC(=O)[C@H](Cc1ccccc1)NC(=O)[C@H](CO)NC(=O)[C@@H](NC(=O)[C@H](Cc1c[nH]c2ccccc12)NC(=O)[C@H](CC(N)=O)NC(=O)[C@H](N)Cc1ccc(O)cc1)[C@@H](C)O)C(=O)N[C@@H](Cc1ccccc1)C(N)=O [Compound No. 208] (H-[dY]NWTSFGL[Arg(Me)]F-NH2)
[1]
  Specific Act. (intracellular Ca ion level-increasing activity, specific activity to Metastin (1-54)): 1
[2]
  Specific Act. (EC50/MS10 EC50): 7.3

## CNC(=N)NCCC[C@H](NC(=O)[C@H](CC(C)C)NC(=O)NNC(=O)[C@H](Cc1ccccc1)NC(=O)[C@H](CO)NC(=O)[C@H](CC(N)=O)NC(=O)[C@H](Cc1c[nH]c2ccccc12)NC(=O)[C@H](N)Cc1ccc(O)cc1)C(=O)N[C@@H](Cc1ccccc1)C(N)=O [Compound No. 222, D-Tyr-Trp-Asn-Ser-Phe-AzaGly-Leu-Arg(Me)-Phe-NH2] (H-[dY]WNSF[azaGly]L[Arg(Me)]F-NH2)
[1]
  Specific Act. (intracellular Ca ion level-increasing activity, specific activity to Metastin (1-54)): 10
[2]
  Specific Act. (EC50/MS10 EC50): 2.7

## CNC(=N)NCCC[C@H](NC(=O)[C@H](CC(C)C)NC(=O)CNC(=O)[C@H](Cc1ccccc1)NC(=O)[C@H](CO)NC(=O)[C@H](CC(N)=O)NC(=O)[C@@H](Cc1c[nH]c2ccccc12)NC(=O)[C@@H](CC(N)=O)NC(=O)[C@H](N)Cc1ccc(O)cc1)C(=O)N[C@@H](Cc1ccccc1)C(N)=O [Compound No. 231, D-Tyr-D-Asn-D-Trp-Asn-Ser-Phe-Gly-Leu-Arg(Me)-Phe-NH2]
[1]
  Specific Act. (intracellular Ca ion level-increasing activity, specific activity to Metastin (1-54)): 1

## CNC(=N)NCCC[C@H](NC(=O)[C@H](CC(C)C)NC(=O)CNC(=O)[C@H](Cc1ccccc1)NC(=O)[C@H](CO)NC(=O)[C@H](CC(N)=O)NC(=O)[C@H](C)NC(=O)[C@H](CC(N)=O)NC(=O)[C@H](N)Cc1ccc(O)cc1)C(=O)N[C@@H](Cc1ccccc1)C(N)=O [Compound No. 169] (H-[dY]NANSFGL[Arg(Me)]F-NH2)
[1]
  Specific Act. (intracellular Ca ion level-increasing activity, specific activity to Metastin (1-54)): 2

## H-YNWNSFSLRF-NH2 [Compound No. 101]
[1]
  Specific Act. (intracellular Ca ion level-increasing activity, specific activity to Metastin (1-54)): 10

## CCNC(=N)NCCC[C@H](NC(=O)[C@H](CC(C)C)NC(=O)CNC(=O)[C@H](Cc1ccccc1)NC(=O)[C@H](CO)NC(=O)[C@H](CC(N)=O)NC(=O)[C@H](Cc1c[nH]c2ccccc12)NC(=O)[C@H](CC(N)=O)NC(=O)[C@H](N)Cc1ccc(O)cc1)C(=O)N[C@@H](Cc1ccccc1)C(N)=O [Compound No. 192]
[1]
  Specific Act. (intracellular Ca ion level-increasing activity, specific activity to Metastin (1-54)): 1

## CC(C)C[C@H](NC(=O)CNC(=O)[C@H](Cc1ccccc1)NC(=O)[C@H](CO)NC(=O)[C@H](CC(N)=O)NC(=O)[C@H](Cc1c[nH]c2ccccc12)NC(=O)[C@H](CC(N)=O)NC(=O)[C@@H](N)Cc1ccc(O)cc1)C(=O)N[C@@H](CCCNC(=N)N)C(=O)N[C@@H](Cc1csc2ccccc12)C(N)=O [Compound No. 189] (H-YNWNSFGLR[Bta]-NH2)
[1]
  Specific Act. (intracellular Ca ion level-increasing activity, specific activity to Metastin (1-54)): 10

## CC(C)C[C@H](NC(=O)CNC(=O)[C@H](Cc1ccccc1)NC(=O)[C@H](CO)NC(=O)[C@H](CC(N)=O)NC(=O)[C@H](Cc1c[nH]c2ccccc12)NC(=O)[C@H](CC(N)=O)NC(=O)[C@@H](N)Cc1ccc(O)cc1)C(=O)N[C@@H](CCCNC(=N)N)C(=O)N[C@@H](Cc1ccc(F)c(F)c1)C(N)=O [Compound No. 198]
[1]
  Specific Act. (intracellular Ca ion level-increasing activity, specific activity to Metastin (1-54)): 10

## CC[C@H](C)[C@H](NC(=O)[C@H](CC(N)=O)NC(=O)[C@H](N)Cc1ccc(O)cc1)C(=O)N[C@@H](CC(N)=O)C(=O)N[C@@H](CO)C(=O)N[C@@H](Cc1ccccc1)C(=O)NNC(=O)N[C@@H](CC(C)C)C(=O)N[C@@H](CCCNC(=N)NC)C(=O)N[C@@H](Cc1ccccc1)C(N)=O [Compound No. 233, D-Tyr-Asn-Ile-Asn-Ser-Phe-AzaGly-Leu-Arg(Me)-Phe-NH2] (H-[dY]NINSF[azaGly]L[Arg(Me)]F-NH2)
[1]
  Specific Act. (intracellular Ca ion level-increasing activity, specific activity to Metastin (1-54)): 1

## D-Tyr-Asn-Trp-Ser-Ser-Phe-Gly-Leu-Arg(Me)-Phe-NH2 ([dY]NWSSFGL[Arg(Me)]F-NH2) [Compound No. 207]
[1]
  Specific Act. (intracellular Ca ion level-increasing activity, specific activity to Metastin (1-54)): ½

## CNC(=N)NCCC[C@H](NC(=O)[C@H](CC(C)C)NC(=O)CNC(=O)[C@H](Cc1ccccc1)NC(=O)[C@H](CO)NC(=O)[C@H](CC(N)=O)NC(=O)[C@@H](Cc1c[nH]c2ccccc12)NC(=O)[C@H](N)CC(N)=O)C(=O)N[C@@H](Cc1ccccc1)C(N)=O [Compound No. 225, D-Asn-D-Trp-Asn-Ser-Phe-Gly-Leu-Arg(Me)-Phe-NH2] (H-[dN][dW]NSFGL[Arg(Me)]F-NH2)
[1]
  Specific Act. (intracellular Ca ion level-increasing activity, specific activity to Metastin (1-54)): 1

## CNC(=N)NCCC[C@H](NC(=O)[C@H](CC(C)C)NC(=O)CNC(=O)[C@H](Cc1ccccc1)NC(=O)[C@H](CO)NC(=O)[C@H](CC(N)=O)NC(=O)[C@@H](NC(=O)[C@H](N)Cc1ccc(O)cc1)[C@@H](C)O)C(=O)N[C@@H](Cc1ccccc1)C(N)=O [Compound No. 227] (H-[dY]TNSFGL[Arg(Me)]F-NH2)
[1]
  Specific Act. (intracellular Ca ion level-increasing activity, specific activity to Metastin (1-54)): 1

## CC(C)C[C@H](NC(=O)CNC(=O)[C@H](Cc1ccccc1)NC(=O)[C@H](CO)NC(=O)[C@H](CC(N)=O)NC(=O)[C@H](Cc1c[nH]c2ccccc12)NC(=O)[C@H](CC(N)=O)NC(=O)[C@@H](N)Cc1ccc(O)cc1)C(=O)N[C@@H](CCCNC(=N)N)C(=O)N[C@@H](Cc1ccc(Cl)cc1)C(N)=O [Compound No. 130]
[1]
  Specific Act. (intracellular Ca ion level-increasing activity, specific activity to Metastin (1-54)): 10
